Experimental data published in paper PMC5450702 (Toxins, 2017).

Tests used:
[1] = ref [45], cited from earlier work
Method: The capability of defensins to interact with microbial membranes is determined by the shape of the molecules, the ratio of polar to hydrophobic residues on the peptide surface, and the total positive charge given through basic amino acids rather than by their individual primary structures. Usually, increasing the overall positive charge will increase the antimicrobial activity of AMPs due to the selective action of AMPs on negatively charged bacterial membranes. Indeed, the AMP cryptidin-4 (Crp4, charge +8) more effectively associates with negatively charged biological membranes than ne ...

sodium channels = settings: ref [11]; cited from earlier work
[2] = ref [11]; cited from earlier work
mice = assay: CFA-induced inflammation and thermal hyperalgesia; format: in vivo, CD-1 mice
Method: All experiments were approved by the Animal Care and Use Committee of the Branch of the IBCh RAS (Pushchino, Russia) protocol number No. 492/16. Adult male CD-1 mice (weight 20–30 g; obtained from the Animal Breeding Facility Branch of Shemyakin-Ovchinnikov Institute of Bioorganic Chemistry, Russian Academy of Sciences, Pushchino, Russia Federation) were housed at room temperature (23 ± 2 °C) and subjected to a 12 h light–dark cycle with food and water available ad libitum. […] The significance of the data was determined by Analysis of variance (ANOVA) followed by Turkey’s post-hoc test. Data are presented as mean ± SEM.
Paw inflammation and thermal hyperalgesia was induced using Complete Freund’s Adjuvant (CFA) suspended in an oil/saline (1:1) emulsion. The mice were injected with 20 µL of CFA emulsion into the plantar surface of the left hind-paw. The control mice were injected with 20 µL of saline. […] Paw withdrawal latency was recorded using a hot plate (53 °C) 30 min after peptide or saline administration. […] Percent inflammation was calculated according to the formula ((Postdose paw diameter − Naive paw diameter)/(Predose paw diameter − Naive paw diameter)) × 100.

[3] = test system: myocardial voltage gated Na^+ channel; design: method as in PMID 1686683; settings: ref [41]; cited from earlier work
TRPA1 = settings: ref [53]; cited from earlier work
Text: Most probably, this peptide can potentiate and defunctionalize the TRPA1 receptor on sensory neurons or desensitize neurons. […] In our study, defunctionalization of ...

In the case of “cryptidin-4 (Crp4: mouse alpha-defensin 4 antimicrobial peptide (LRGLLCYCRKGHCKRGERVRGTCGIRFLYCCPRR; UniProt P28311 59-92, looked up)”, the charge [1] is listed as “+8” and the association with membranes ([1]; versus neutral membranes) is listed as “more effectively associates with negatively charged biological membranes than neutral membranes”.
For neurotoxin 2 (ATX-II), the “effect on sodium channels gating” value (sodium channels) is given as “affect sodium channels gating” and the antimicrobial properties [2] is given as “have antimicrobial properties”.
In the case of `CCC(=N\O)/C(C)=C/c1ccc(F)cc1` [A-967079], the “effect of TRPA1 antagonist on Ueq 12-1 action, CFA-induced inflammation” value (mice; A-967079 20 mg/kg p.o. 1 h before Ueq 12-1 0.2 mg/kg i.v.) is reported as “completely blocked the effect of peptide Ueq 12-1” and the “effect of TRPA1 antagonist on Ueq 12-1 action, thermal hyperalgesia” value (mice; A-967079 20 mg/kg p.o., Ueq 12-1 0.2 mg/kg i.v., n = 7–8) is reported as “completely blocked the effect of peptide Ueq 12-1”.
For “Anthopleurin-A: 49-residue polypeptide from Anthopleura xanthogrammica”, the “effect on myocardial voltage gated Na^+ channel” value [3] is given as “delayed inactivation”.
In the case of `C=C1C(=O)O[C@H]2[C@H]1CC/C(C)=C/CC[C@@]1(C)O[C@@H]21` [parthenolide], the TRPA1 activity (TRPA1) is listed as “partial agonist of TRPA1”.
